Test results reported in patent US20240228434A1, “PRODRUGS OF KV7 CHANNEL OPENERS” (Xyzagen, Inc., priority 2021, published 2024).

Experiments:
[1] = Acid and organic solution stability, HPLC-UV 250 nm; settings: 5 mg/mL; for Degradation / conversion to ezogabine in solution (summary): up to 3 weeks
Protocol: An HPLC-UV Vis method was developed using 0.1% Formic acid in water as mobile phase A and 0.1% Formic acid in acetonitrile as mobile Phase B. A gradient method was developed ramping from 10% A to 90% B over 8 minutes and then returning to 10% A at 8.5 minutes on a 4.6×50 mm Zorbax C-18 column. Injections of 10 uL of stability solutions were injected for analyte detection.
[…] Aliquots were collected at serial time points and then diluted to a nominal concentration of 100 ug/mL for injection to the HPLC and 250 nm monitored by the diode array detector. Data at approximately 10 days is presented.
Aliquots were collected at serial time points and then diluted to a nominal concentration of 100 ug/mL for injection to the HPLC and 250 nm monitored by the diode array detector.
(§1) It was also evaluated at 2 N HCl at 37° C. Aliquots were collected at serial time points and then diluted to a nominal concentration of 100 ug/mL for injection to the HPLC and 250 nm monitored by the diode array detector.
as §1, §1, §1

[2] = Plasma and brain concentration after oral Compound 29; settings: oral 30 mg/kg Compound 29, 0.25, 0.5 and 1 h
Source text: (§2) Each male CF-1 mouse provided one data point in the MES assay and one data point in the concentration analysis. There were 8 mice per time point.

[3] = Rat PK at equimolar dose to Ezogabine (20 mg/kg) in 0.5% methylcellulose; settings: for Exposure of ezogabine (dose normalized AUC) compared with ezogabine itself: rats, equimolar dose to Ezogabine 20 mg/kg
Protocol: (§3) Blood samples were collected at the same time points over 24 hours to generate a concentration time profile. Two male rats were dosed per group. Plasma samples were analyzed by LC/MS/MS and the resulting concentration time profiles and PK parameters are provided.
as §3, §3

MES induced seizures [4] = assay: Mouse maximal electroshock (MES) assay of Compound 29, oral; assay type: in vivo, CF-1 mouse; settings: oral 30 mg/kg; 0.25, 0.5 and 1 h
Source text: as §2

MES induced seizures [5] = assay: Maximal electroshock assay of Compound 28, IP; assay type: in vivo, CF-1 mice; settings: for Animals protected from MES induced seizures: 30 minutes after administration
[6] = Drug concentration in plasma and brain after Compound 28 IP; settings: CF-1 mice, 30 minutes
[7] = male jugular vein cannulated rats, dose equimolar to Ezogabine 20 mg/kg, 0.5% methylcellulose in water, 24 hours, analyte the dosed prodrug
[8] = male jugular vein cannulated rats, dose equimolar to Ezogabine 20 mg/kg, 0.5% methylcellulose in water, analyte the dosed prodrug

CCNC(=O)CC[C@H](N)C(=O)Nc1cc(NCc2ccc(F)cc2)ccc1NC(=O)OCC.Cl [Compound 29]
Degradation / conversion to ezogabine in solution (summary) [1]: degradation under acidic conditions and also conversion to ezogabine | Ezogabine Area ([1]; 0.1N HCl, room temp., normal light, 441 h): 0 mAU | Ezogabine Area ([1]; 1N HCl, room temp., normal light, 441 h): 1241 mAU | Ezogabine Area ([1]; 2N HCl 37 C., 441 h): 1755 mAU | Ezogabine Area ([1]; 2N HCl, room temp., normal light, 441 h): 1659 mAU | Ezogabine Area ([1]; Methanol, room temp., normal light, 441 h): 0 mAU | Exposure of ezogabine [2]: very high in plasma and was present in brain | AUClast [3, 7]: 6110 ng·h/mL | Cmax/D ([3]; male jugular vein cannulated rats, dose equimolar to Ezogabine 20 mg/kg, 0.5% methylcellulose in water, analyte Ezogabine): 23.3 ng/mL/mg/kg | Cmax [3, 8]: 883 ng/mL | Cmax/D [3, 8]: 44.2 ng/mL/mg/kg | Tmax [3, 8]: 9.6 min | Exposure of ezogabine (dose normalized AUC) compared with ezogabine itself [3]: similar | Pharmacological response in MES over time (MES induced seizures [4]): reduced in tandem to the decrease in brain concentrations

CCOC(=O)Nc1ccc(NCc2ccc(F)cc2)cc1NC(=O)C[C@@H](CN)CC(C)C [Compound 28]
Degradation / conversion to ezogabine in solution (summary) [1]: degradation to ezogabine with increasing strength of the acidic solution | Ezogabine Area ([1]; 0.1N HCl, room temp., normal light, 440 h): 0 mAU | Ezogabine Area ([1]; 1N HCl, room temp., normal light, 440 h): 568 mAU | Ezogabine Area ([1]; 2N HCl 37 C., 440 h): 3593 mAU | Ezogabine Area ([1]; 2N HCl, room temp., normal light, 440 h): 1462 mAU | Appearance of the stability solution ([1]; 11 days): clear and colorless through Day 11 | % Remaining ([1]; 440 h): 92.0% | Ezogabine Area ([1]; Acetonitrile, room temp., normal light, 440 h): 248 mAU | Ezogabine Area ([1]; Methanol, room temp., normal light, 440 h): 0 mAU | AUClast/D [3, 7]: 83.0 ng·h/mL/mg/kg | Cmax/D [3, 8]: 9.31 ng/mL/mg/kg | Exposure of ezogabine (dose normalized AUC) compared with ezogabine itself [3]: lower exposure | Animals protected from MES induced seizures (MES induced seizures [5]; IP 12 mg/kg): 1 of 9 | Animals protected from MES induced seizures (MES induced seizures [5]; IP 24 mg/kg): 3 of 9 | Protection against MES induced seizures, dose response (MES induced seizures [5]; IP 1.5, 3, 6, 12 and 24 mg/kg): None of the doses showed complete protection | Concentration of the prodrug compared with ezogabine [6]: present at higher concentrations than ezogabine
